This passage reports EC50 results from patent publication US20220002272A1, “BISARYL LACTAMS AS NRF2 ACTIVATORS” (GLAXOSMITHKLINE INTELLECTUAL PROPERTY DEVELOPMENT LIMITED, priority 2016, published 2022).

Counter-ions that a name gives are not always drawn. Bounds are passed on as bounds.

The assay deals with NQ01 specific enzyme activity in BEAS-2B cells (marker for Nrf2 activation). As to the kind of experiment: BEAS-2B NQ01 MTT Assay. The format is cell-based. As to conditions: Homo sapiens; NQ01 specific activity induction in BEAS-2B cells, 48 hours incubation with compound. The source says:
NAD(P)H:quinone oxidoreductase 1 (NQ01), also called DT diaphorase, is a homodimeric FAD-containing enzyme that catalyzes obligatory NAD(P)H-dependent two-electron reductions of quinones and protects cells against the toxic and neoplastic effects of free radicals and reactive oxygen species arising from one-electron reductions. The transcription of NQ01 is finely regulated by Nrf2, and thus NQ01 activity is a good marker for Nrf2 activation. On day one, frozen BEAS-2B cells (ATCC) are thawed in a water bath, counted, and re-suspended at a concentration of 250,000 cells/mL. Fifty microliters of cells are plated in 384 well black clear-bottomed plates. Plates are incubated at 37° C., 5% CO2 overnight. On day two, plates are centrifuged and 50 nL of compound or controls are added to the cells. Plates are then incubated at 37° C., 5% CO2 for 48 hours. On day four, medium is aspirated from the plate and crude cell lysates are made by adding 13 uL of 1× Cell Signaling Technologies lysis buffer with 1 Complete, Mini, EDTA-free Protease Inhibitor Tablet (Roche) for each 10 mL of lysis buffer. After lysis plates are incubated for 20 minutes at room temperature. Two microliters of lysate are removed for use in Cell Titer Glo assay (Promega) and MTT cocktail is prepared (Prochaska et. al. 1998) for measurement of NQ01 activity. Fifty microliters of MTT cocktail is added to each well, plate is centrifuged, and analyzed on an Envision plate reader (Perkin Elmer) using Absorbance 570 nm label for 30 minutes. Product formation is measured kinetically and the pEC50 of NQ01 specific activity induction is calculated by plotting the change in absorbance (Delta OD/min) versus the log of compound concentration followed by 3-parameter fitting.
pEC50 is the negative log of the EC50.
EC50s<1 nM (+++++), EC50s 10 nM-1 nM (++++), EC50s 10-100 nM (+++), EC50s 100 nM-1 μM (++), EC50s 1-10 μM (+).

For orientation: EC50 means the concentration giving half of the maximal effect. With `Cc1c([C@H](c2ccc3c(c2)[C@H](N2CC(=O)N(C)CC(C)(C)C2)CC3)C(C)(C)C(=O)O)ccc2c1nnn2C` (relative stereo) [Example 10, rel-3S-(1,4-Dimethyl-1H-benzo[d][1,2,3]triazol-5-yl)-2,2-dimethyl-3-(rel-(R)-3-(4,6,6-trimethyl-3-oxo-1,4-diazepan-1-yl)-2,3-dihydro-1H-inden-5-yl)propanoic acid], the EC50 is less than 1 nM.

As to `Cc1c([C@H](c2ccc3c(c2)[C@@H](N2CC(=O)N(C)CC(C)(C)C2)CC3)C(C)(C)C(=O)O)ccc2c1nnn2C` (relative stereo) [Example 11, rel-3S-(1,4-Dimethyl-1H-benzo[d][1,2,3]triazol-5-yl)-2,2-dimethyl-3-(rel-(S)-3-(4,6,6-trimethyl-3-oxo-1,4-diazepan-1-yl)-2,3-dihydro-1H-inden-5-yl)propanoic acid], the EC50 lay in the range of 1 to 10 nM.

In the case of `Cc1c(C(c2ccc3c(c2)C(N2CC(=O)N(C)CC(C)(C)C2)CC3)C(C)(C)C(=O)O)ccc2c1nnn2C` (single isomer, unassigned) [Example 12], the EC50 was 10 to 100 nM.

With `Cc1ccc([C@@H](c2ccc3c(nnn3C)c2C)C(C)(C)C(=O)O)cc1CN1CC(=O)N(C2CC2)CC(C)(C)C1` [Example 1], the EC50 lay within 1 to 10 nM.

Consider `CCCN1CC(C)(C)CN(Cc2cc([C@@H](c3ccc4c(nnn4C)c3C)C(C)(C)C(=O)O)ccc2C)CC1=O` [Example 2], for which the EC50 is 1 to 10 nM.

On to `Cc1ccc([C@@H](c2ccc3c(nnn3C)c2C)C(C)(C)C(=O)O)cc1CN1CCCN(C)C(=O)C1` [Example 3, (S)-3-(1,4-Dimethyl-1H-benzo[d][1,2,3]triazol-5-yl)-2,2-dimethyl-3-(4-methyl-3-((4-methyl-3-oxo-1,4-diazepan-1-yl)methyl)phenyl)propanoic acid], for which the concentration giving a half-maximal response (EC50) is 100 to 1000 nM.

As for `CCN1CC(C)(C)CN(Cc2cc([C@@H](c3ccc4c(nnn4C)c3C)C(C)(C)C(=O)O)ccc2C)CC1=O` [Example 4], the EC50 was in the range of 1 to 10 nM.

In the case of `CCC1CN(Cc2cc(C(c3ccc4c(nnn4C)c3C)C(C)(C)C(=O)O)ccc2C)CC(=O)N(C)C1` (stereo not shown) [Example 5, 3-(1,4-Dimethyl-1H-benzo[d][1,2,3]triazol-5-yl)-3-(3-((6-ethyl-4-methyl-3-oxo-1,4-diazepan-1-yl)methyl)-4-methylphenyl)-2,2-dimethylpropanoic acid], the EC50 lay in the range of 1 to 10 nM.

`Cc1ccc([C@@H](c2ccc3c(nnn3C)c2C)C(C)(C)C(=O)O)cc1CN1CC(=O)N(C)CC(C)(C)C1` [Example 6, (S)-3-(1,4-Dimethyl-1H-benzo[d][1,2,3]triazol-5-yl)-2,2-dimethyl-3-(4-methyl-3-((4,6,6-trimethyl-3-oxo-1,4-diazepan-1-yl)methyl)phenyl)propanoic acid, 0.3Formic acid salt]: the EC50 is 1 to 10 nM.

As for `Cc1ccc(C(c2ccc3c(nnn3C)c2C)C(C)(C)C(=O)O)cc1CN1CC(=O)N(C)CC(C)(C)C1` (stereo not shown) [Example 7, 3-(1,4-Dimethyl-1H-benzo[d][1,2,3]triazol-5-yl)-2,2-dimethyl-3-(4-methyl-3-((4,6,6-trimethyl-3-oxo-1,4-diazepan-1-yl)methyl)phenyl)propanoic acid], the EC50 was in the range of 1 to 10 nM.

As for `Cc1ccc(C(c2ccc3c(nnn3C)c2C)C(C)(C)C(=O)O)cc1CN1CC(=O)N(C2CCC2)CC(C)(C)C1` (stereo not shown) [Example 8, 3-(3-((4-Cyclobutyl-6,6-dimethyl-3-oxo-1,4-diazepan-1-yl)methyl)-4-methylphenyl)-3-(1,4-dimethyl-1H-benzo[d][1,2,3]triazol-5-yl)-2,2-dimethylpropanoic acid], the EC50 fell in the range of 1 to 10 nM.

As to `Cc1ccc(C(c2ccc3c(nnn3C)c2C)C(C)(C)C(=O)O)cc1CN1CC(=O)N(CC2CC2)CC(C)(C)C1` (stereo not shown) [Example 9, 3-(3-((4-(Cyclopropylmethyl)-6,6-dimethyl-3-oxo-1,4-diazepan-1-yl)methyl)-4-methylphenyl)-3-(1,4-dimethyl-1H-benzo[d][1,2,3]triazol-5-yl)-2,2-dimethylpropanoic acid], the EC50 fell in the range of 10 to 100 nM.

Take `Cc1c(C(c2ccc3c(c2)C(N2CC(=O)N(C)CC(C)(C)C2)CC3)C(C)(C)C(=O)O)ccc2c1nnn2C` (stereo not shown) [Example 13, 3-(1,4-Dimethyl-1H-benzo[d][1,2,3]triazol-5-yl)-2,2-dimethyl-3-(3-(4,6,6-trimethyl-3-oxo-1,4-diazepan-1-yl)-2,3-dihydro-1H-inden-5-yl)propanoic acid]: the EC50 is 100 to 1000 nM.

As to `CCn1cc(COC(c2ccc(C)c(CN3CC(=O)N(C)CC(C)(C)C3)c2)C(C)(C)C(=O)O)nn1` (stereo not shown) [Example 14, 3-((1-Ethyl-1H-1,2,3-triazol-4-yl)methoxy)-2,2-dimethyl-3-(4-methyl-3-((4,6,6-trimethyl-3-oxo-1,4-diazepan-1-yl)methyl)phenyl)propanoic acid], the EC50 fell in the range of 100 to 1000 nM.

Consider `CCCN1CC(C)(C)CN(Cc2cc(C(CCc3cn(CC)nn3)C(C)(C)C(=O)O)ccc2Cl)CC1=O` (stereo not shown) [Example 15, 3-(4-Chloro-3-((6,6-dimethyl-3-oxo-4-propyl-1,4-diazepan-1-yl)methyl)phenyl)-5-(1-ethyl-1H-1,2,3-triazol-4-yl)-2,2-dimethylpentanoic acid], for which the EC50 was in the range of 10 to 100 nM.

On to `CCn1cc(CCC(c2ccc(Cl)c(CN3CC(=O)N(C)CC(C)(C)C3)c2)C(C)(C)C(=O)O)nn1` (stereo not shown) [Example 16, 3-(4-Chloro-3-((4,6,6-trimethyl-3-oxo-1,4-diazepan-1-yl)methyl)phenyl)-5-(1-ethyl-1H-1,2,3-triazol-4-yl)-2,2-dimethylpentanoic acid], for which the EC50 was less than 1 nM.
